Experimental data published in PMC4627230, “Identification of TAX2 peptide as a new unpredicted anti-cancer agent” (Oncotarget, 2015).

Experiments:
[1] = test system: tumor vasculature of MIA PaCa-2 xenograft in BALB/C nu/nu mice; assay: MIA PaCa-2 xenograft vascularization (μCT, dissection); format: in vivo, human tumor xenograft in mouse; details: 10 mg/kg i.p. 3 times a week for 4 weeks
Protocol: (§1) For the subcutaneous melanoma tumor model, suspensions of B16F1 cells (2.5 × 10^5 cells in 100 μL RPMI-1640 medium) were subcutaneously injected into the left flank of different randomized series of syngeneic C57BL/6 mice (n = 8–10 per group), as previously described. Intraperitoneal administrations of peptide (10 mg/kg mouse weight) or controls (physiological serum 0.9% (w/v) NaCl or a scrambled peptide) were performed at days 3, 5 and 7. In human pancreatic carcinoma xenograft experiments, 3 × 10^6 MIA PaCa-2 cells/mouse were implanted subcutaneously into the left flank of BALB/C athymic nude mice, then TAX2 intraperitoneal treatments (10 mg/kg mouse weight) were performed 3 times a week during 4 weeks starting at day 10 after tumor cells inoculation. Tumor volume was determined according to v = 0.5 A × B^2, where A denotes the largest dimension of the tumor and B represents the smallest dimension. At days indicated, mice were sacrificed and tumors were surgically extracted and fixed in 4% paraformaldehyde for further morphologic studies and for magnetic resonance imaging, or frozen for immunohistochemistry. Mice were also weighed every 2–3 days and daily checked for any modification in their behavior. Loss of 15% body weight was an indication for euthanasia as well as severe tumor necrosis, as it was sometimes associated with skin ulceration that would result in loss of body fluid and/or infection.
Animals were anesthetized by isoflurane (Forene, Abbott France, Rungis, France) inhalation (3% for induction and 1–1.5% for maintenance) and then after placed in a carbon fibers bed. CT images were acquired on a dedicated small animal μCT scanner (Skyscan 1076, Bruker, Kontich, Belgium) while continuously rotating the camera by 180° with the following parameters: 50 kV, 0.5 mm Al filter, 200 μA source current, 35 μm isotropic resolution, 180 ms exposure time, 4 projection images per 0.7° rotation step and a retrospective synchronization. […] Analysis of reconstructed images and quantification of the vascular network were performed using Amira 5.4.3 software.

HUVECs = assay: Endothelial tube formation assay on matrigel; format: cell-based, human
Protocol: Figure 2 TAX2 peptide impairs endothelial cell migration and inhibits angiogenesis in vitro and ex vivo A. HUVECs were treated with TAX2 (100 μM) or scrambled peptide (Ctrl, 100 μM). CD47 was immunoprecipitated from total protein lysates using anti-CD47 (clone B6H12) and non-specific IgGs were used as a negative control. Immunocomplexes were then submitted to SDS-PAGE and immunoblotted (IB) using specific TSP-1 and CD47 antibodies. Histogram represents the quantification of co-immunoprecipitated TSP-1 relative to immunoprecipitated CD47. Results are expressed as percentage compared to control (n = 3 separate experiments, t test). B. HUVECs (1 × 10^5 per well) were grown at confluence and then cell proliferation was inhibited by incubating with 10 μg/mL mitomycin C for 2 h. Migration assays were performed for 9 h with or without TAX2 peptide (100 μM), as described in Materials and Methods. Photographs (100×) were taken every 3 h. Graph represents the quantification of the wounded area. Each value is the mean of 3 independent experiments, each performed in quadruplicate. C. HUVECs (5 × 10^4 per well) were plated into the upper compartment of a Transwell membrane and incubated for 12 h in EGM-2 in the presence of 100 μM TAX2 peptide. Hoechst-stained migrating cells attached on outside surface of the top chamber were photographed (20× objective) and counted. Results are expressed as percentage of migrated cells as compared to control. Each value represents the mean of 5 independent experiments, each performed in triplicate.*p < 0.05, compared to control; t test. D. HUVECs (5 × 10^4) were cultured on matrigel layers in control conditions (Ctrl) or in the presence of TAX2. After 8 h incubation, HUVEC tube-like formation was observed on an inverted microscope (40×) and quantification of network total length was done using ImageJ software. Numeration of branching points, tubes and nodal structures was conducted using S.CORE system. Data are expressed as the mean ± SE from at least 3 independent experiments, each performed in triplicate. […] F. Total RNAs were purified from HUVECs transfected with non-silencing siRNA (siCtrl) or siRNA targeting TSP-1 (siTSP-1). The transcriptional level of TSP-1 was assessed by RT-PCR and normalized to β-actin. […] After 6 days incubation in the presence of 100 μM TAX2 or control peptide (Ctrl), images were taken with an inverted microscope (40×) and microvessel area was quantified using ImageJ software. […]
Figure 3 Anti-angiogenic properties of TAX2 are mediated by TSP-1 binding to CD36 A. Expression of CD36 in HUVECs was assessed by immunoblotting (left panel) and immunofluorescence staining (right panel, red). […] The presence of TSP-1 in immunocomplexes was quantified by densitometric analysis relative to immunoprecipitated CD36. […]

[2] = test system: MIA PaCa-2 xenograft in BALB/C nu/nu mice; assay: MIA PaCa-2 human pancreatic carcinoma xenograft growth; format: in vivo, human tumor xenograft in mouse
Protocol: as §1

Sequence: CEVSQLLKGDAC (disulfide) [TAX2, CD47-derived cyclic disulfide dodecapeptide …]
- tumor vasculature in dissections, day 38 [1]: decreased tumor vasculature
- tumor-associated vascular network in 3D reconstruction, day 38 [1]: strongly inhibit tumor-associated vascular network
- tumor vascularization until day 38 ([1]; μCT, representative of n = 5): striking alteration of tumor vascularization
- formation of branching points, capillary tubes and nodal structures (HUVECs; HUVECs on matrigel, 8 h, S.CORE): decreased
- inhibition of pseudo-tube network formation (total network length) (HUVECs; HUVECs on matrigel, 8 h, at least 3 experiments in triplicate): 40%
- effect on lumen formation under TSP-1 gene silencing (HUVECs; HUVECs transfected with siTSP-1, matrigel, 8 h): wholly abolished
- prevention of capillary structure formation in presence of CD36 blocking antibody (HUVECs; HUVECs, 100 μM, 12 h, anti-CD36 blocking antibody, n = 3): wholly reversed
- xenograft growth delay ([2]; 10 mg/kg i.p. 3 times a week for 4 weeks from day 10): strong delay
- decrease of tumor volume at day 38 ([2]; 10 mg/kg i.p. 3 times a week for 4 weeks from day 10, n = 9, p < 0.05): 2 fold
- tumor volume at day 24, xenograft ([2]; 10 mg/kg i.p. 3 times a week from day 10, n = 15): no differences in measured tumor volume were observed
- inhibition rate compared to 5 mg/kg bevacizumab twice weekly i.p. ([2]; MIA PaCa-2 xenograft, bevacizumab data from ref [56]): higher inhibition rates
